# Test results: the supplement of paper PMC10307832
# Tests used:
# Assay in all cases: relative viability (nuclei count vs DMSO), 5 days (fraction); higher = more cells survive
# LXF-289 = test system: LXF-289
# Method in brief: (§1)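 Each reported value is a median over duplicate plates. It expresses relative viability: treated-well nuclei count divided by vehicle-well nuclei count. Lung cancer cell lines in 1536-well plates were dosed by pin tool a day after seeding, alone with one drug or with a fixed anchor-drug dose plus five library-drug doses (not always all listed) in √10 steps, and nuclei were counted after 5 days.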
# NCI-H661 = test system: NCI-H661
# Method in brief: as §1
# NCI-H2087 = test system: NCI-H2087
# Method in brief: as §1
# LC-2-ad = test system: LC-2-ad
# Method in brief: as §1
# SK-MES-1 = test system: SK-MES-1
# Method in brief: as §1
# BEN = test system: BEN
# Method in brief: as §1
# LCLC-97TM1 = test system: LCLC-97TM1
# Method in brief: as §1
# NCI-H838 = test system: NCI-H838
# Method in brief: as §1
# ChaGo-K-1 = test system: ChaGo-K-1
# Method in brief: as §1
# NCI-H650 = test system: NCI-H650
# Method in brief: as §1
# HCC-78 = test system: HCC-78
# Method in brief: as §1
# NCI-H1666 = test system: NCI-H1666
# Method in brief: as §1
# LK-2 = test system: LK-2
# Method in brief: as §1
# NCI-H1355 = test system: NCI-H1355
# Method in brief: as §1
# NCI-H1944 = test system: NCI-H1944
# Method in brief: as §1
# NCI-H1975 = test system: NCI-H1975
# Method in brief: as §1
# NCI-H596 = test system: NCI-H596
# Method in brief: as §1
# NCI-H1651 = test system: NCI-H1651
# Method in brief: as §1
# LU99A = test system: LU99A
# Method in brief: as §1
# NCI-H358 = test system: NCI-H358
# Method in brief: as §1
# PC-3 [JPC-3] = test system: PC-3 [JPC-3]
# Method in brief: as §1
# NCI-H2342 = test system: NCI-H2342
# Method in brief: as §1
structure (smiles),measurement,setting,value
CCN(CC)CCCCNc1ncc2cc(-c3cc(OC)cc(OC)c3)c(NC(=O)NC(C)(C)C)nc2n1 + COc1cccc2cc(-c3nc([C@H]4CC[C@H](C(=O)O)CC4)n4ncnc(N)c34)[nH]c12 [OSI-027] (partner 0.5 µM),relative viability,LXF-289; first compound 0.01 µM,0.825
same,relative viability,LXF-289; first compound 0.03162 µM,0.823
same,relative viability,LXF-289; first compound 0.1 µM,0.973
same,relative viability,LXF-289; first compound 0.3162 µM,0.812
same,relative viability,LXF-289; first compound 1 µM,0.715
same,relative viability,NCI-H661; first compound 0.01 µM,0.784
same,relative viability,NCI-H661; first compound 0.03162 µM,0.727
same,relative viability,NCI-H661; first compound 0.1 µM,0.779
same,relative viability,NCI-H661; first compound 0.3162 µM,0.743
same,relative viability,NCI-H661; first compound 1 µM,0.48
same,relative viability,NCI-H2087; first compound 0.01 µM,0.618
same,relative viability,NCI-H2087; first compound 0.03162 µM,0.5
same,relative viability,NCI-H2087; first compound 0.1 µM,0.733
same,relative viability,NCI-H2087; first compound 0.3162 µM,0.636
same,relative viability,NCI-H2087; first compound 1 µM,0.6
same,relative viability,LC-2-ad; first compound 0.01 µM,0.776
same,relative viability,LC-2-ad; first compound 0.03162 µM,1.05
same,relative viability,LC-2-ad; first compound 0.1 µM,0.909
same,relative viability,LC-2-ad; first compound 0.3162 µM,0.854
same,relative viability,LC-2-ad; first compound 1 µM,0.75
same,relative viability,SK-MES-1; first compound 0.01 µM,0.627
same,relative viability,SK-MES-1; first compound 0.03162 µM,0.654
same,relative viability,SK-MES-1; first compound 0.1 µM,0.58
same,relative viability,SK-MES-1; first compound 0.3162 µM,0.81
same,relative viability,SK-MES-1; first compound 1 µM,0.521
same,relative viability,BEN; first compound 0.01 µM,0.242
same,relative viability,BEN; first compound 0.03162 µM,0.285
same,relative viability,BEN; first compound 0.1 µM,0.347
same,relative viability,BEN; first compound 0.3162 µM,0.311
same,relative viability,BEN; first compound 1 µM,0.282
same,relative viability,LCLC-97TM1; first compound 0.01 µM,0.553
same,relative viability,LCLC-97TM1; first compound 0.03162 µM,0.518
same,relative viability,LCLC-97TM1; first compound 0.1 µM,0.513
same,relative viability,LCLC-97TM1; first compound 0.3162 µM,0.619
same,relative viability,LCLC-97TM1; first compound 1 µM,0.367
same,relative viability,NCI-H838; first compound 0.01 µM,0.373
same,relative viability,NCI-H838; first compound 0.03162 µM,0.39
same,relative viability,NCI-H838; first compound 0.1 µM,0.449
same,relative viability,NCI-H838; first compound 0.3162 µM,0.377
same,relative viability,NCI-H838; first compound 1 µM,0.273
same,relative viability,ChaGo-K-1; first compound 0.01 µM,0.618
same,relative viability,ChaGo-K-1; first compound 0.03162 µM,0.671
same,relative viability,ChaGo-K-1; first compound 0.1 µM,0.619
same,relative viability,ChaGo-K-1; first compound 0.3162 µM,0.559
same,relative viability,ChaGo-K-1; first compound 1 µM,0.513
same,relative viability,NCI-H650; first compound 0.01 µM,0.46
same,relative viability,NCI-H650; first compound 0.03162 µM,0.551
same,relative viability,NCI-H650; first compound 0.1 µM,0.589
same,relative viability,NCI-H650; first compound 0.3162 µM,0.605
same,relative viability,NCI-H650; first compound 1 µM,0.507
same,relative viability,HCC-78; first compound 0.01 µM,0.36
same,relative viability,HCC-78; first compound 0.03162 µM,0.381
same,relative viability,HCC-78; first compound 0.1 µM,0.468
same,relative viability,HCC-78; first compound 0.3162 µM,0.349
same,relative viability,HCC-78; first compound 1 µM,0.357
same,relative viability,NCI-H1666; first compound 0.01 µM,0.896
same,relative viability,NCI-H1666; first compound 0.03162 µM,0.877
same,relative viability,NCI-H1666; first compound 0.1 µM,0.817
same,relative viability,NCI-H1666; first compound 0.3162 µM,1.08
same,relative viability,NCI-H1666; first compound 1 µM,0.851
same,relative viability,LK-2; first compound 0.01 µM,0.193
same,relative viability,LK-2; first compound 0.03162 µM,0.192
same,relative viability,LK-2; first compound 0.1 µM,0.163
same,relative viability,LK-2; first compound 0.3162 µM,0.165
same,relative viability,LK-2; first compound 1 µM,0.196
same,relative viability,NCI-H1355; first compound 0.01 µM,0.405
same,relative viability,NCI-H1355; first compound 0.03162 µM,0.404
same,relative viability,NCI-H1355; first compound 0.1 µM,0.417
same,relative viability,NCI-H1355; first compound 0.3162 µM,0.45
same,relative viability,NCI-H1355; first compound 1 µM,0.367
same,relative viability,NCI-H1944; first compound 0.01 µM,0.417
same,relative viability,NCI-H1944; first compound 0.03162 µM,0.449
same,relative viability,NCI-H1944; first compound 0.1 µM,0.437
same,relative viability,NCI-H1944; first compound 0.3162 µM,0.406
same,relative viability,NCI-H1944; first compound 1 µM,0.351
same,relative viability,NCI-H1975; first compound 0.01 µM,0.86
same,relative viability,NCI-H1975; first compound 0.03162 µM,0.822
same,relative viability,NCI-H1975; first compound 0.1 µM,0.802
same,relative viability,NCI-H1975; first compound 0.3162 µM,0.949
same,relative viability,NCI-H1975; first compound 1 µM,0.559
same,relative viability,NCI-H596; first compound 0.01 µM,0.63
same,relative viability,NCI-H596; first compound 0.03162 µM,0.74
same,relative viability,NCI-H596; first compound 0.1 µM,0.758
same,relative viability,NCI-H596; first compound 0.3162 µM,0.709
same,relative viability,NCI-H596; first compound 1 µM,0.528
same,relative viability,NCI-H1651; first compound 0.01 µM,0.7
same,relative viability,NCI-H1651; first compound 0.03162 µM,0.737
same,relative viability,NCI-H1651; first compound 0.1 µM,0.782
same,relative viability,NCI-H1651; first compound 0.3162 µM,0.79
same,relative viability,NCI-H1651; first compound 1 µM,0.695
same,relative viability,LU99A; first compound 0.01 µM,0.292
same,relative viability,LU99A; first compound 0.03162 µM,0.259
same,relative viability,LU99A; first compound 0.1 µM,0.309
same,relative viability,LU99A; first compound 0.3162 µM,0.291
same,relative viability,LU99A; first compound 1 µM,0.302
same,relative viability,NCI-H358; first compound 0.01 µM,0.791
same,relative viability,NCI-H358; first compound 0.03162 µM,0.803
same,relative viability,NCI-H358; first compound 0.1 µM,1.12
same,relative viability,NCI-H358; first compound 0.3162 µM,0.996
same,relative viability,NCI-H358; first compound 1 µM,0.694
same,relative viability,PC-3 [JPC-3]; first compound 0.01 µM,0.753
same,relative viability,PC-3 [JPC-3]; first compound 0.03162 µM,0.796
same,relative viability,PC-3 [JPC-3]; first compound 0.1 µM,0.782
same,relative viability,PC-3 [JPC-3]; first compound 0.3162 µM,1.02
same,relative viability,PC-3 [JPC-3]; first compound 1 µM,0.585
same,relative viability,NCI-H2342; first compound 0.01 µM,0.676
same,relative viability,NCI-H2342; first compound 0.03162 µM,0.615
same,relative viability,NCI-H2342; first compound 0.1 µM,0.622
same,relative viability,NCI-H2342; first compound 0.3162 µM,0.701
same,relative viability,NCI-H2342; first compound 1 µM,0.568
